Data set [1] addresses T1, human NK-3 receptor (Homo sapiens (Human), UniProt P29371). Put plainly: Aequorin functional assay with human NK-3 receptor (antagonist testing vs NKA). The format is cell-based. To be noted: CHO cells, NKA at EC80 (3 nM); read-out: Functional assay: Aequorin assay with human NK-3 receptor hNK-3-AEQ (antagonist IC50). As to the method: Aequorin Assay with Human NK-3 Receptor
Changes in intracellular calcium levels are a recognized indicator of G protein-coupled receptor activity. The efficacy of compounds of the invention to inhibit NKA-mediated NK-3 receptor activation was assessed by an in vitro Aequorin functional assay. Chinese Hamster Ovary recombinant cells expressing the human NK-3 receptor and a construct that encodes the photoprotein apoaequorin were used for this assay. In the presence of the cofactor coelenterazine, apoaequorin emits a measurable luminescence that is proportional to the amount of intracellular (cytoplasmic) free calcium.
The antagonist activity of compounds of the invention is measured following pre-incubation (3 minutes) of the compound (at various concentrations) with the cells, followed by addition of the reference agonist (NKA) at a final concentration equivalent to the EC80 (3 nM) and recording of emitted light (FDSS 6000 Hamamatsu) over the subsequent 90-second period. The intensity of the emitted light is integrated using the reader software. Compound antagonist activity is measured based on the concentration-dependent inhibition of the luminescence response to the addition of Neurokinin A.

The target in data set [2] is T1, human NK-3 receptor. Nature of the data set: 3H-SB222200 binding competition assay with human NK-3 receptor. How it is done: The affinity of compounds of the invention for the human NK-3 receptor was determined by measuring the ability of compounds of the invention to competitively and reversibly displace a well-characterized NK-3 radioligand in a concentration-dependent manner.
^3H-SB222200 Binding Competition Assay with Human NK-3 Receptor
Membranes were prepared from Chinese hamster ovary recombinant cells stably expressing the human NK-3 receptor. The membranes were incubated with 5 nM ^3H-SB222200 (ARC) in a HEPES 25 mM/NaCl 0.1M/CaCl2 1 mM/MgCl2 5 mM/BSA 0.5%/Saponin 10 μg/ml buffer at pH 7.4 and various concentrations of compounds of the invention. The amount of ^3H-SB222200 bound to the receptor was determined after filtration by the quantification of membrane associated radioactivity using the TopCount-NXT reader (Packard).

For the next data set, the target named is human NK-1 receptor (Homo sapiens (Human), UniProt P25103). Put plainly: Selectivity assay: [3H] substance P binding, human NK-1 receptor. The settings on record: 2 nM [3H] substance P, CHO membranes; read-out: hNK-1 (Ki). As to the method: Selectivity of the compounds of the invention was determined over the other human NK receptors, namely NK-1 and NK-2 receptors.
The affinity of compounds of the invention for the NK-1 receptor was evaluated in CHO recombinant cells which express the human NK-1 receptor. Membrane suspensions were prepared from these cells. The following radioligand: [^3H] substance P (PerkinElmer Cat #NET111520) was used in this assay. Binding assays were performed in a 50 mM Tris/5 mM MnCl2/150 mM NaCl/0.1% BSA at pH 7.4. Binding assays consisted of 25 μl of membrane suspension (approximately 5 μg of protein/well in a 96 well plate), 50 μl of compound or reference ligand (Substance P) at increasing concentrations (diluted in assay buffer) and 2 nM [^3H] substance P. The plate was incubated 60 min at 25° C. in a water bath and then filtered over GF/C filters (Perkin Elmer, 6005174, presoaked in 0.5% PEI for 2 h at room temperature) with a Filtration unit (Perkin Elmer). The radioactivity retained on the filters was measured by using the TopCount-NXT reader (Packard).

Another data set deals with human NK-2 receptor (Homo sapiens (Human), UniProt P21452). Nature of the data set: Selectivity assay: [125I]-Neurokinin A binding, human NK-2 receptor. To be noted: 0.1 nM [125I]-Neurokinin A, CHO membranes; read-out: hNK-2 (Ki). As to the method:
The affinity of compounds of the invention for the NK-2 receptor was evaluated in CHO recombinant cells which express the human NK-2 receptor. Membrane suspensions were prepared from these cells. […] Binding assays were performed in a 25 mM HEPES/1 mM CaCl2)/5 mM MgCl2/0.5% BSA/10 μg/ml saponin, at pH 7.4. […] The radioactivity retained on the filters was measured by using the TopCount-NXT reader (Packard).

In another data set the test system is plasma protein. Put plainly: Determination of plasma protein binding (equilibrium dialysis, RED). The format is in vitro ADME. The settings on record: 4 hours at 37° C. An excerpt: Determination of plasma protein binding The pharmacokinetic and pharmacodynamic properties of chemicals/drugs are largely a function of the reversible binding of chemicals to plasma or serum proteins. […] Consequently, the extent of the plasma protein binding (PPB) of a compound influences its action as well as its distribution and elimination.
The determination of plasma protein binding (PPB) of a compound is enabled by equilibrium dialysis, an accepted and standard method for reliable estimation of the non-bound drug fraction in plasma. RED (Rapid Equilibrium Dialysis) device insert is made of two side-by-side chambers separated by an O-ring-sealed vertical cylinder of dialysis membrane (MWCO ˜8,000). […] After 4 hours incubation at 37° C. under shaking, an aliquot is removed from each chamber and analyzed by a LC-MS/MS procedure enables the determination of both free and bound drug.
The “free fraction” may be calculated as 100%−% rPPB (i.e. the complementary percentage of that disclosed in Table 4, corresponding to the drug concentration that is unbound and therefore available to engage biological target and elicit pharmacological activity).
(In general: Equilibrium dialysis compares concentrations on both sides of a semipermeable membrane.)

Setting [3] is: Table 2, 5 nM 3H-SB222200, CHO membranes, read-out: Competitive binding assay with human NK-3 receptor hNK-3 (Ki).
The mark [4] stands for this setting: Table 3 (selectivity table), read-out: hNK-3 (Ki).

pIC50, pKi: −log10 of the molar value. Read-outs that look alike come from different tables or passages of the source.

T1 sequence (P29371 whole entry): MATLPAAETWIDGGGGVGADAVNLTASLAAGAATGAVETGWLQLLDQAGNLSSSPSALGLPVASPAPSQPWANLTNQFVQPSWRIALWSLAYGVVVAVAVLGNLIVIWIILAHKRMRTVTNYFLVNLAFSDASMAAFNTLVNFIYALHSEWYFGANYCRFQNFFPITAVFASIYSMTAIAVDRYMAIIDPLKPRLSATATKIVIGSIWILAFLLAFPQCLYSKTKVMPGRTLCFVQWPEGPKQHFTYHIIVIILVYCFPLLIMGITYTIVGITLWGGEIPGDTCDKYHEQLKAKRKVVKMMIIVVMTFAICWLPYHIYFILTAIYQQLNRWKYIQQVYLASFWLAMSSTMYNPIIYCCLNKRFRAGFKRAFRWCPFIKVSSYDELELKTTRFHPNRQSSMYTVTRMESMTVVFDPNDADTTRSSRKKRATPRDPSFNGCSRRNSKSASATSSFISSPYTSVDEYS
human NK-1 receptor, sequence (P25103 whole entry): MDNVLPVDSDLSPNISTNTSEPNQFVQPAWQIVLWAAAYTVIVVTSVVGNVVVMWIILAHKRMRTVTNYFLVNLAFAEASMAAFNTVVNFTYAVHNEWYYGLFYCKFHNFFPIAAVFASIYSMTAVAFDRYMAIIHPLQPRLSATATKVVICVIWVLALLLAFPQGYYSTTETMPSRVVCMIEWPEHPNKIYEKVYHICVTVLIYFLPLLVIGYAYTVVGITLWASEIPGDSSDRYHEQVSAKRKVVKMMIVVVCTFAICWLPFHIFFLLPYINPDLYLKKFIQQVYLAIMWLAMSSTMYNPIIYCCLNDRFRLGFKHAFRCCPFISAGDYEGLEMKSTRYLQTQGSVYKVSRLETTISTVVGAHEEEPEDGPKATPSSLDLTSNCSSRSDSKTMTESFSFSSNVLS
human NK-2 receptor, sequence (P21452 whole entry): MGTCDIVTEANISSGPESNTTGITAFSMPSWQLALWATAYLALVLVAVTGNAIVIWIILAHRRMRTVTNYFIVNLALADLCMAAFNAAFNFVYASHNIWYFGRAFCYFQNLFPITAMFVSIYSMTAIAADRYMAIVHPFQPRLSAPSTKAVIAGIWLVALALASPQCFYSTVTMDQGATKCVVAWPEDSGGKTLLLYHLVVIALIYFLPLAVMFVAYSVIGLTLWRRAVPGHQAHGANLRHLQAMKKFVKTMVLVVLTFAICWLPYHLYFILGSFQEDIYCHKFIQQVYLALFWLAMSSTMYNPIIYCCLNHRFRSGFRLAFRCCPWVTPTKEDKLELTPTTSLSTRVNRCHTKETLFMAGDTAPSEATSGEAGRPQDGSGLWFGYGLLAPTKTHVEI

As a reminder, the pIC50 is the negative decadic logarithm of the IC50, by convention in mol/L. By pKi is commonly meant the Ki on a negative log10 scale, so that one unit is a factor of ten. Regarding `Cc1nsc(-c2nnc3n2CCN(C(=O)c2ccc(C(F)(F)F)cc2)[C@@H]3C)n1` [Compound 21, (R)-(8-methyl-3-(3-methyl-1,2,4-thiadiazol-5-yl)-5,6-dihydro-[1,2,4]triazolo[4,3-a]pyrazin-7(8H)-yl)(4-(trifluoromethyl)phenyl)methanone], the pIC50 at human NK-3 receptor [1] is 6.82. The pKi at human NK-3 receptor [2] (setting [3]) is 7.20; on human NK-3 receptor [2] (setting [4]), 7.20; at human NK-1 receptor it was < 4.52; at human NK-2 receptor it was < 4.52. In the data set with plasma protein, the “Exposure (% rPPB), bound drug fraction to plasma protein” value (“Exposure (% rPPB), bound drug fraction” for short) came out at 38%.
Regarding `CC[C@@H]1c2nnc(-c3nc(C)ns3)n2CCN1C(=O)c1ccc(F)cc1` [Compound 22, (R)-(8-ethyl-3-(3-methyl-1,2,4-thiadiazol-5-yl)-5,6-dihydro-[1,2,4]triazolo[4,3-a]pyrazin-7(8H)-yl)(4-fluorophenyl)methanone], the pIC50 at human NK-3 receptor [1] is 6.89. For the same compound, the pKi at human NK-3 receptor [2] (setting [3]) is 7.16; at human NK-3 receptor [2] (setting [4]), 7.16; on human NK-1 receptor, < 4.52; on human NK-2 receptor it was < 4.52. In the data set with plasma protein, the “Exposure (% rPPB), bound drug fraction” value stood at 27%.
Regarding `CCC[C@@H]1c2nnc(-c3nc(C)ns3)n2CCN1C(=O)c1ccc(F)cc1` [Compound 24, (R)-(4-fluorophenyl)(3-(3-methyl-1,2,4-thiadiazol-5-yl)-8-propyl-5,6-dihydro-[1,2,4]triazolo[4,3-a]pyrazin-7(8H)-yl)methanone], the pIC50 at human NK-3 receptor [1] is 6.92. In addition, the pKi on human NK-3 receptor [2] (setting [3]) was 7.11; at human NK-3 receptor [2] (setting [4]), 7.11; on human NK-1 receptor, < 4.52; at human NK-2 receptor, < 4.52. Moreover, the “Exposure (% rPPB), bound drug fraction” value in the data set on plasma protein was 48%.
Turning to `COc1cc(C(=O)N2CCn3c(-c4nc(C)ns4)nnc3[C@H]2C)ccc1F` [Compound 25, (R)-(4-fluoro-3-methoxyphenyl)(8-methyl-3-(3-methyl-1,2,4-thiadiazol-5-yl)-5,6-dihydro-[1,2,4]triazolo[4,3-a]pyrazin-7(8H)-yl)methanone], the pIC50 at human NK-3 receptor [1] is 6.96. Further, the pKi was 7.07 on human NK-3 receptor [2] (setting [3]), 7.07 at human NK-3 receptor [2] (setting [4]), < 4.52 on human NK-1 receptor and < 4.52 on human NK-2 receptor. Besides, the “Exposure (% rPPB), bound drug fraction” value in the data set on plasma protein worked out at 19%.
As to `Cc1nsc(-c2nnc3n2CCN(C(=O)c2ccccc2C)[C@@H]3C)n1` [Compound 26, (R)-(8-methyl-3-(3-methyl-1,2,4-thiadiazol-5-yl)-5,6-dihydro-[1,2,4]triazolo[4,3-a]pyrazin-7(8H)-yl)(o-tolyl)methanone], at human NK-3 receptor [1], the pIC50 is 7.13. The pKi on human NK-3 receptor [2] (setting [3]) was 7.06; at human NK-3 receptor [2] (setting [4]), 7.06; at human NK-1 receptor, < 4.52; on human NK-2 receptor, < 4.52. The “Exposure (% rPPB), bound drug fraction” value in the data set on plasma protein is reported as 19%.
Take `Cc1noc(-c2nnc3n2CCN(C(=O)c2ccc(F)cc2)[C@@H]3C)n1` [Compound 28, (R)-(4-fluorophenyl)(8-methyl-3-(3-methyl-1,2,4-oxadiazol-5-yl)-5,6-dihydro-[1,2,4]triazolo[4,3-a]pyrazin-7(8H)-yl)methanone]: the negative logarithm of the IC50 (pIC50) on human NK-3 receptor [1] is 6.80. In addition, the pKi on human NK-3 receptor [2] (setting [3]) was 6.96; on human NK-3 receptor [2] (setting [4]), 6.96; on human NK-1 receptor, < 4.52; at human NK-2 receptor, < 4.52. The “Exposure (% rPPB), bound drug fraction” value in the data set with plasma protein was determined as 12%.
With `Cc1nsc(-c2nnc3n2CCN(C(=O)c2ccc(C#N)cc2)[C@@H]3C)n1` [Compound 29, (R)-4-(8-methyl-3-(3-methyl-1,2,4-thiadiazol-5-yl)-5,6,7,8-tetrahydro-[1,2,4]triazolo[4,3-a]pyrazine-7-carbonyl)benzonitrile], on human NK-3 receptor [1], the pIC50 is 6.77. Also, the negative-log Ki (pKi) was 6.82 on human NK-3 receptor [2] (setting [3]), 6.82 at human NK-3 receptor [2] (setting [4]), < 4.52 at human NK-1 receptor and < 4.52 on human NK-2 receptor. In addition, the “Exposure (% rPPB), bound drug fraction” value with plasma protein is recorded as 10%.
`C[C@@H]1c2nnc(-c3nc(C(F)F)ns3)n2CCN1C(=O)c1ccc(F)cc1` [Compound 42, (R)-(3-(3-(difluoromethyl)-1,2,4-thiadiazol-5-yl)-8-methyl-5,6-dihydro-[1,2,4]triazolo[4,3-a]pyrazin-7(8H)-yl)(4-fluorophenyl)methanone]: the pIC50 at human NK-3 receptor [1] was 7.41. Further, the pKi at human NK-3 receptor [2] (setting [3]) is 7.32; on human NK-3 receptor [2] (setting [4]), 7.32; on human NK-1 receptor, < 4.52; on human NK-2 receptor, < 4.52. In addition, the “Exposure (% rPPB), bound drug fraction” value in the data set on plasma protein amounted to 16%.
Consider `C[C@@H]1c2nnc(-c3nc(C(C)(F)F)no3)n2CCN1C(=O)c1ccc(F)cc1` [Compound 43, (R)-(3-(3-(1,1-difluoroethyl)-1,2,4-oxadiazol-5-yl)-8-methyl-5,6-dihydro-[1,2,4]triazolo[4,3-a]pyrazin-7(8H)-yl)(4-fluorophenyl)methanone], for which the pIC50 at human NK-3 receptor [1] is 6.87. The pKi at human NK-3 receptor [2] (setting [3]) is 7.23; on human NK-3 receptor [2] (setting [4]), 7.23; on human NK-1 receptor, < 4.52; on human NK-2 receptor it was < 4.52. Besides, in the data set on plasma protein, the “Exposure (% rPPB), bound drug fraction” value turned out to be 47%.
As to `C[C@@H]1c2nnc(-c3nc(CC(F)(F)F)no3)n2CCN1C(=O)c1ccc(F)cc1` [Compound 44, (R)-(4-fluorophenyl)(8-methyl-3-(3-(2,2,2-trifluoroethyl)-1,2,4-oxadiazol-5-yl)-5,6-dihydro-[1,2,4]triazolo[4,3-a]pyrazin-7(8H)-yl)methanone], on human NK-3 receptor [1], the pIC50 is 6.69. Further, the pKi at human NK-3 receptor [2] (setting [3]) is 7.35; at human NK-3 receptor [2] (setting [4]), 7.35; on human NK-1 receptor, < 4.52; at human NK-2 receptor it was < 4.52. Further, the “Exposure (% rPPB), bound drug fraction” value with plasma protein was 31%.
For `CC(F)c1noc(-c2nnc3n2CCN(C(=O)c2ccc(F)cc2)[C@@H]3C)n1` (stereo partly drawn) [Compound 45, ((8R)-3-(3-(1-fluoroethyl)-1,2,4-oxadiazol-5-yl)-8-methyl-5,6-dihydro-[1,2,4]triazolo[4,3-a]pyrazin-7(8H)-yl)(4-fluorophenyl)methanone], the pIC50 on human NK-3 receptor [1] is 6.61. Further, the pKi on human NK-3 receptor [2] (setting [3]) is 7.00; on human NK-3 receptor [2] (setting [4]) it was 7.00; on human NK-1 receptor, < 4.52; at human NK-2 receptor, < 4.52. Also, in the data set on plasma protein, the “Exposure (% rPPB), bound drug fraction” value was found to be 31%.
